Measurements as given in patent US20130267485A1, “Pharmaceutical Combination of Resveratrol and Progestin to Treat and/or Prevent Myoma and/or Endometriosis” (LIBBS FARMACEUTICA LTDA., priority 2010, published 2013).

Tests used:
[1] = tested on: patients with intramural myoma, adenomyosis and endometriosis; assay: Uterus volume before and after treatment, 30 patients (plus comparative resveratrol-only patients); assay type: in vivo, human
Description: An experiment was carried out with 30 patients treated with combinations of drospirenone, ethinyl estradiol and resveratrol, as well as with combinations of gestinol and resveratrol, evaluating the volume of the uterus before and after the treatment. In the comparative studies with three patients A, B and C, showing intramural myoma treated only with resveratrol, there was observed a 32% increase for patient A, treated during 12 months; 27% increase for patient B, treated during 3 months; and 22% increase for patient C, treated during 1 month.

[2] = tested on: stromal cells extracted from human endometrium tissue; assay: Antiproliferative activity, MTT colorimetric method; assay type: cell-based
Description: Negative control: stromal cells of endometrioma incubated with 200 μL of culture medium supplemented with 10% fetal bovine serum and 0.1% DMSO. After calculating the concentrations, the test substances were diluted in 100% DMSO, with stock solution concentrations being of 1 mM to ethinyl estradiol and 10 mM to Dienogest, Resveratrol and Danazol. The use solution was obtained by 1:10 serial dilutions in culture medium supplemented with 10% of fetal bovine serum and 1% of antibiotic/antimycotic. The final concentration of DMSO in the solutions was 0.1%. Endometrium tissues were obtained from 2 voluntary donors by means of videolaparoscopy, by signing the respective terms of consent and ages between 18 and 45 years. A fragment was taken from tissue samples for histological confirmation of endometriosis and the remaining was packaged in sterile flask containing culture medium DMEM/Ham's F12 (Gibco®) with ampicillin and streptomycin (Merck®) antibiotics, and they were taken immediately to the laboratory. […] The resulting suspension was centrifuged and re-suspended in culture medium, and it was then transferred to a 25 cm^2 culture bottle. The purity of cell cultures was tested by immunocytochemistry using rabbit anti-human vimentin monoclonal primary antibody (Spring Bioscience TM) and rabbit anti-IgG secondary polyclonal antibody from goat labeled with Texas Red (Invitrogen®). The cells were maintained and amplified in DMEM/Ham's F12 (Gibco®) 10% FBS medium, with […] of antibiotics ampicillin and streptomycin in culture bottle until reaching the sub-confluence (90% of confluence), and then they were transferred to 96-well plates for conducting the tests for assessing antiproliferative activity. Cells were transferred to 96-well plates to a density of 10,000 cells per well in culture medium with 10% of SBF and incubated during 48 hours. […] Then, MTT tetrazolium salt was added (Invitrogen) at a concentration of 1 mg/mL, according to the incubation periods described in the manufacturer's manual. Cell proliferation was indirectly evaluated using the MTT colorimetric method (Invitrogen) and absorbance measurement at 540 nm in SpectraMax M2 plate reader-Molecular Devices with SoftMax […].2 software. By following this procedure, results of antiproliferative activity. of drugs on cells can be obtained. Data were calculated with the ratio of values obtained from cultures exposed (and in different concentrations, combined or not) and cultures not exposed to drugs. The reference of 100% of cell viability, cells cultured without the presence of drugs, was considered.

## Oc1ccc(/C=C/c2cc(O)cc(O)c2)cc1 [Resveratrol, trans-3,5,4″-trihidroxystilbene]
[1]; patient A, treated during 12 months
  increase (intramural myoma, treated only with resveratrol): 32%
[1]; patient B, treated during 3 months
  increase (intramural myoma, treated only with resveratrol): 27%
[1]; patient C, treated during 1 month
  increase (intramural myoma, treated only with resveratrol): 22%
[2]; resveratrol alone 1.980 ng/mL, 100% = cells without drugs
  Proliferation: 94.8%
[2]; resveratrol alone 19.800 ng/mL, 100% = cells without drugs
  Proliferation: 90.6%
[2]; resveratrol alone 197.970 ng/mL (concentration used in the combination)
  Proliferation: 94.7%
[2]; resveratrol alone 1979.130 ng/mL
  Proliferation: 93.3%
[2]; resveratrol alone 19797.13 ng/mL
  Proliferation: 91.1%
